Test results reported in patent US7575882B2, “Compositions and methods for identifying modulators of TRPV2” (Janssen Pharmaceutica N. V., priority 2005, dated 2009).

What was measured:
rat TRPV2 = target: T1, rat TRPV2 (Rattus norvegicus, UniProt Q9WUD2, A713V/L151P/T158I); assay: Whole-cell patch clamp, HEK293 cells stably expressing rat TRPV2; assay type: cell-based; conditions: 10 μM ruthenium red; 100 μM Δ^9-THC
T1 construct: A cDNA fragment encoding the full-length rat TRPV2 was subcloned into pCI-neo; expressed in transfected cells
T1 sequence (Q9WUD2 1-761 L151P/T158I/A713V): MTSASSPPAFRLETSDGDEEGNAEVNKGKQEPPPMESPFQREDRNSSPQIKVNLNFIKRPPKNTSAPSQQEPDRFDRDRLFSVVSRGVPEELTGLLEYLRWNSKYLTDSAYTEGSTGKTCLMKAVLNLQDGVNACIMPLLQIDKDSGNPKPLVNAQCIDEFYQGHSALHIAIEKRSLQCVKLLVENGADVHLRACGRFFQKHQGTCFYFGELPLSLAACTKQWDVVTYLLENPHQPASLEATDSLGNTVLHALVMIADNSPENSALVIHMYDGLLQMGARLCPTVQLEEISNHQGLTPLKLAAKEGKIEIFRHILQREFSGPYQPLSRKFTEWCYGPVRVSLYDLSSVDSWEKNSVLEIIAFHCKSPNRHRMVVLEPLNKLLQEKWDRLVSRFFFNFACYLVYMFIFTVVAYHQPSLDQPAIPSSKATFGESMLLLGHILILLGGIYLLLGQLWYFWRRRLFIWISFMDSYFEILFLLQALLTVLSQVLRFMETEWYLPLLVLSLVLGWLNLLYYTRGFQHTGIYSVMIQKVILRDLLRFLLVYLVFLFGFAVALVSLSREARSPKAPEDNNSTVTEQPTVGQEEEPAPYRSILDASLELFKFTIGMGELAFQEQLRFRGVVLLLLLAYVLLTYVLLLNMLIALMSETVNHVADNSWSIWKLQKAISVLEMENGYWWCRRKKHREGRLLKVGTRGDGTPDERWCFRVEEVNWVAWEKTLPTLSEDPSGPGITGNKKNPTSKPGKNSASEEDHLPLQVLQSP
Procedure: To further confirm the Δ^9-THC effect on TRPV2, whole-cell patch clamp studies were performed. The extracellular solution contained (in mM): NaCl, 132; CaCl, 1.8; KCl, 5.4; MgCl2, 0.8; HEPES, 10; glucose, 10; pH=7.4. The intracellular solution used to fill recording pipettes contained (in mM): CsCl, 145; EGTA, 5; HEPES, 10; glucose, 5; pH=7.4. Recordings were performed using the conventional whole-cell patch clamp technique, 2-3 days after transient transfection of human TRPV2 into HEK293 cell or 1-2 days after plating HEK293 cells stably expressing rat TRPV2 onto glass coverslips. Currents were amplified by a patch clamp amplifier and filtered at 2 kHz (Axopatch 200B), sampled at 10 kHz using Digidata 1322A and acquired and analyzed with pClamp 9.0 (all instruments from Molecular Devices, CA). A 600 ms voltage ramp was given once every five seconds from −100 mV to +60 mV. The holding potential between voltage ramps was −100 mV. Extracellular solutions were applied to the cell at 0.5 ml/min via a gravity-fed perfusion system. All experiments were performed at 22° C.

human TRPV2 = target: T2, human TRPV2 (Homo sapiens, UniProt Q9Y5S1); assay: Whole-cell patch clamp, HEK293 cells transiently transfected with human TRPV2; assay type: cell-based; conditions: 10 μM ruthenium red; 100 μM Δ^9-THC
T2 construct: A cDNA fragment encoding the full-length human TRPV2 was subcloned into pCI-neo or pcDNA3; expressed in transfected cells; host or cells: HEK293, transient, pCI-neo or pcDNA3
T2 sequence (Q9Y5S1 1-764): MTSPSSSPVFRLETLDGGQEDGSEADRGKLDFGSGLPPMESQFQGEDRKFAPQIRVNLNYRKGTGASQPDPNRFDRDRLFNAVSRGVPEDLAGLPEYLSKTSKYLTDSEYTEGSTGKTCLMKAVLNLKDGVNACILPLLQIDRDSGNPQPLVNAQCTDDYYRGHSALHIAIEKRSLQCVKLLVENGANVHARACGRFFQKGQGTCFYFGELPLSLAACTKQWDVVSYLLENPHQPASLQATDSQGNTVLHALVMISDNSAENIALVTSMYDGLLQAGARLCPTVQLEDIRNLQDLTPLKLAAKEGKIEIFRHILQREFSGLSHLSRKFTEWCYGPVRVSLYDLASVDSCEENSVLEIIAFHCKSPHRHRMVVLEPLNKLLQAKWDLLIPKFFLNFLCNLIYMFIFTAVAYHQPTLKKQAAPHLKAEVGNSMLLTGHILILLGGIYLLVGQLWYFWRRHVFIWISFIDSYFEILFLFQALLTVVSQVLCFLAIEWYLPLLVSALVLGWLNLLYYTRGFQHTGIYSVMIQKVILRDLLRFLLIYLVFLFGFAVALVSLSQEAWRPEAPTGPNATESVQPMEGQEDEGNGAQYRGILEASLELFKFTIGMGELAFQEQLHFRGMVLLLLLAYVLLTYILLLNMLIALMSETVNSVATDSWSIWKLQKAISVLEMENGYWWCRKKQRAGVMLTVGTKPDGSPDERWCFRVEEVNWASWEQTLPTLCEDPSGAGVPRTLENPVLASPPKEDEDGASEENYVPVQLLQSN
Procedure: A cDNA fragment encoding the full-length human TRPV2 was subcloned into pCI-neo or pcDNA3 mammalian expression vectors. The expression constructs were then transfected into HEK293 cells with FuGene6 transfection reagent (Roche, Indianapolis, Ind.) according to vendor's protocol. TRPV2-expressing HEK293 cells were cultured in DMEM supplemented with 10% fetal bovine serum, 100 units/ml penicillin, and 100 μg/ml streptomycin for 48-72 hr and either evaluated for transient expression and/or activity, or dosed with 400 μg/ml G418 to select for stably-transfected TRPV2-expressing cell clones. Cells were maintained at 37° C. and in 5% CO2.
To further confirm the Δ^9-THC effect on TRPV2, whole-cell patch clamp studies were performed. The extracellular solution contained (in mM): NaCl, 132; CaCl, 1.8; KCl, 5.4; MgCl2, 0.8; HEPES, 10; glucose, 10; pH=7.4. The intracellular solution used to fill recording pipettes contained (in mM): CsCl, 145; EGTA, 5; HEPES, 10; glucose, 5; pH=7.4. […] Currents were amplified by a patch clamp amplifier and filtered at 2 kHz (Axopatch 200B), sampled at 10 kHz using Digidata 1322A and acquired and analyzed with pClamp 9.0 (all instruments from Molecular Devices, CA). […]

`N.N.N.N.N.N.N.N.N.N.N.N.N.N.[Cl-].[Cl-].[Cl-].[Cl-].[Cl-].[Cl-].[O-2].[O-2].[Ru+3].[Ru+3].[Ru+4]` [ruthenium red] was tested, and the “inhibition of Δ^9-THC-activated currents, rat TRPV2” value (rat TRPV2) was “significantly inhibited” and the “inhibition of Δ^9-THC-activated currents, human TRPV2” value (human TRPV2) was “significantly inhibited”.
